Assay results as given in ChEMBL document CHEMBL5728432, “Potent and selective mu opioid receptor modulators” (2021).

Biological target: Mu-type opioid receptor (Homo sapiens, UniProt P35372)
Experiment: Competition Binding Assay: The competition binding assay was conducted to determine the affinity and selectivity of the synthesized compounds to MOR over KOR and DOR. The Kd and Bmax values for [3H]NLX at MOR and [3H]DPN at KOR had been determined previously. […] [3H]NLX was used to label MOR whilst [3H]DPN was used to label both DOR and KOR. The potency of the new compounds in displacing the specific binding of the radioligand was determined by linear regression analysis of Hill plots.

Mu-type opioid receptor, sequence (P35372 whole entry): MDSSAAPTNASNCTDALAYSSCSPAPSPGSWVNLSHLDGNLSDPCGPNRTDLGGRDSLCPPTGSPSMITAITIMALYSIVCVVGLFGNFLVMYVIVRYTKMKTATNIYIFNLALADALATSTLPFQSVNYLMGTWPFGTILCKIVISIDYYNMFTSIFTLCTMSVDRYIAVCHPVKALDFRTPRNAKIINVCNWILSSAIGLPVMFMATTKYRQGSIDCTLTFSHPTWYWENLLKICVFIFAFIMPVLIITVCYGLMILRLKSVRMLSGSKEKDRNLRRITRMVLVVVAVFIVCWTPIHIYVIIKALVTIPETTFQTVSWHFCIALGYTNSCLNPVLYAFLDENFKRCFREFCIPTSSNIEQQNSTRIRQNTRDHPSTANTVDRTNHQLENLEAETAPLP

Compound	Ki
O=C(Cc1c[nH]c2ccccc12)N[C@@H]1CC[C@@]2(O)[C@H]3Cc4ccc(O)c5c4[C@@]2(CCN3CC2CC2)[C@H]1O5	0.241 nM
O=C(N[C@H]1CC[C@@]2(O)[C@H]3Cc4ccc(O)c5c4[C@@]2(CCN3CC2CC2)[C@H]1O5)c1ccc2cc[nH]c2c1	0.434 nM
O=C(CCCc1c[nH]c2ccccc12)N[C@@H]1CC[C@@]2(O)[C@H]3Cc4ccc(O)c5c4[C@@]2(CCN3CC2CC2)[C@H]1O5	0.203 nM
O=C(CCc1c[nH]c2ccccc12)N[C@@H]1CC[C@@]2(O)[C@H]3Cc4ccc(O)c5c4[C@@]2(CCN3CC2CC2)[C@H]1O5	0.167 nM
O=C(CCCc1c[nH]c2ccccc12)N[C@H]1CC[C@@]2(O)[C@H]3Cc4ccc(O)c5c4[C@@]2(CCN3CC2CC2)[C@H]1O5	0.293 nM
O=C(N[C@H]1CC[C@@]2(O)[C@H]3Cc4ccc(O)c5c4[C@@]2(CCN3CC2CC2)[C@H]1O5)c1cccc2[nH]ccc12	0.264 nM
O=C(N[C@H]1CC[C@@]2(O)[C@H]3Cc4ccc(O)c5c4[C@@]2(CCN3CC2CC2)[C@H]1O5)c1c[nH]c2ccccc12	0.288 nM
O=C(N[C@H]1CC[C@@]2(O)[C@H]3Cc4ccc(O)c5c4[C@@]2(CCN3CC2CC2)[C@H]1O5)c1cc2ccccc2[nH]1	0.363 nM
O=C(N[C@H]1CC[C@@]2(O)[C@H]3Cc4ccc(O)c5c4[C@@]2(CCN3CC2CC2)[C@H]1O5)c1ccc2[nH]ccc2c1	0.763 nM
O=C(Cc1c[nH]c2ccccc12)N[C@H]1CC[C@@]2(O)[C@H]3Cc4ccc(O)c5c4[C@@]2(CCN3CC2CC2)[C@H]1O5	0.837 nM
O=C(CCc1c[nH]c2ccccc12)N[C@H]1CC[C@@]2(O)[C@H]3Cc4ccc(O)c5c4[C@@]2(CCN3CC2CC2)[C@H]1O5	0.437 nM
